Assay: Evaluation of malodor neutralization: sniffer box evaluation by 12 expert panelists
Conditions: arithmetic mean of panelist ratings; line scale from no odor (0) to strongest imaginable (10), moderate (5) = unperfumed malodor reference; 1 g water added to each sample
Experimental: The object of the following experiments has been the evaluation of performance against feminine hygiene malodor out of sniffer boxes. For this purpose 12 expert panelists evaluated the samples from sniffer boxes. The malodor was placed on different cotton balls and put into an aroma-tight air bag with a volume of […] together with the raw materials placed in a petri dish. Perfume- and malodor intensities were evaluated on a continuous line scale with ten labels ranging from “no odor” (0) to “strongest imaginable” (10) odor with “moderate” (5) being the unperfumed malodor reference sample. Note that panelists only see the verbal anchors not the numbers (0-10) while rating. Results are arithmetic means of the individual panelist's ratings. Subsequently, the data obtained from the olfactory tests were evaluated statistically by a Friedmann-Test for overall difference between the samples followed by a pairwise comparison to identify significant differences among individual samples.

Compound	Malodor (malodor intensity)
CC(=O)OC1CC(C)CCC1C(C)C (stereo not drawn) [c2, menthyl acetate]	4.4
CC1CCC(C(C)C)C2(C1)OCC(CO)O2 (stereo not drawn) [C4, menthone glycerin acetal]	4.4
CC1CCC(C(C)C)C(OC(=O)C(C)O)C1 (stereo not drawn) [C3, menthyl lactate]	4.3
